Test results: US7153863B2, “Therapeutic compounds based on pyrazolopyridline derivatives” (SmithKline Beecham Corporation, priority 2002, dated 2006)

Tested on: HSV-1
Experiment: HSV-1 infection of Vero 76 cells, HSV DNA hybridization capture assay
Assay type: cell-based, herpes simplex virus 1
Details: Human alphaherpesvirus 1; HSV-1 (MOI=0.001) in Vero 76 cells, 40–48 hours at 37° C., viral DNA by hybridization/chemiluminescence
Description: Vero 76 cells were maintained in MEM with Earle's salts, L-glutamine, 8% FBS (Hyclone, A-1111-L) and 100 units/mL Penicillin-100 μg/mL Streptomycin. For assay conditions, FBS was reduced to 2%. Cells are seeded into 96-well tissue culture plates at a density of 5×10^4 cells/well after being incubated for 45 min at 37° C. in the presence of HSV-1 or HSV-2 (MOI=0.001). Test compounds are added to the wells and the plates are incubated at 37° C. for 40–48 hours. Cell lysates are prepared as follows: media was removed and replaced with 150 μL/well 0.2 N NaOH with 1% Igepal CA 630 or NP-40. Plates were incubated up to 14 days at room temperature in a humidified chamber to prevent evaporation.
For the detection probe, a gel-purified, digoxigenin-labeled, […] PCR fragment of the HSV UL-15 sequence was utilized. PCR conditions included 0.5 μM primers, 180 μM dTP, 20 μM dUTP-digoxigenin (Boehringer Mannheim 1558706), 200 μM each of dATP, dCTP, and dGTP, 1×PCR Buffer II (Perkin Elmer), 2.5 mM MgCl2, 0.025 units/μL of AmpliTaq Gold polymerase (Perkin Elmer), and 5 ng of gel-purified HSV DNA per 100 μL Extension conditions were 10 min at 95° C., followed by 30 cycles of 95° C. for 1 min, 55° C. for 30 sec, and 72° C. for 2 min. The amplification was completed with a 10-min incubation at 72° C. Primers were selected to amplify a 728 bp probe spanning a section of the HSV1 UL15 open reading frame (nucleotides 249–977). Single-stranded transcripts were purified with Promega M13 Wizard kits. The final product was mixed 1:1 with a mixture of 6 M GuSCN, 100 mM EDTA and 200 μg/mL herring sperm DNA and stored at 4° C.
The capture DNA plasmid (HSV UL13 region in pUC) was linearized by cutting with Xba I, denatured for 15 min at 95° C. and diluted immediately into Reacti-Bind DNA Coating Solution (Pierce, 17250, diluted 1:1 with TE buffer, pH 8) at 1 ng/μL 75 μL/well were added to Corning (#3922 or 9690) white 96-well plates and incubated at room temperature for at least 4 hrs before washing twice with 300 μL/well 0.2×SSC/0.05% Tween-20 (SSC/T buffer). The plates were then incubated overnight at room temperature with 150 μL/well 0.2 N NaOH, 1% IGEPAL and 10 μg/mL herring sperm DNA.
Twenty-seven (27) μL of cell lysate was combined with 45 μL of hybridization solution (final concentration: 3M GuSCN, 50 mM EDTA, 100 μg/ml salmon sperm DNA, 5× Denhardt's solution, 0.25×APE, and 5 ng of the digoxigenin-labeled detection probe). APE is 1.5 M NH4-acetate, 0.15 M ammonium phosphate monobasic, and 5 mM EDTA adjusted to pH 6.0. Mineral oil (50 μL) was added to prevent evaporation. The hybridization plates were incubated at 95° C. for 10 minutes to denature the DNA, then incubated at 42° C. overnight. The wells were washed 6× with 300 μL/well SSC/T buffer then incubated with 75 μL/well anti-digoxigenin-HRP-conjugated antibody (Boehringer Mannheim 1207733, 1:5000 in TE) for 30 min at room temperature. The wells were washed 6× with 300 μL/well with PBS/0.05% Tween-20 before 75 μL/well SuperSignal LBA substrate (Pierce) was added. The plates were incubated at room temperature for 30 minutes and chemiluminescence was measured in a Wallac Victor reader.
The following results were obtained for HSV-1.

Row | SMILES | IC50 [µM]
1 | CCCc1nn2ccccc2c1-c1ccnc(F)c1 [Example 1, 3-(2-Fluoropyridin-4-yl)-2-propylpyrazolo[1,5-a]pyridine] | > 40
2 | CCCc1nn2ccccc2c1-c1ccnc(NC2CCCC2)c1 [Example 2, N-Cyclopentyl-4-(2-propylpyrazolo[1,5-a]pyridin-3-yl)pyridin-2-amine] | 8
3 | CCCc1nn2c(Cl)cccc2c1-c1ccnc(F)c1 [Example 3, 7-Chloro-3-(2-fluoropyridin-4-yl)-2-propylpyrazolo[1,5-a]pyridine] | 37
4 | CCCc1nn2c(NC3CCCC3)cccc2c1-c1ccnc(NC2CCCC2)c1 [Example 4, N-Cyclopentyl-3-[2-(cyclopentylamino)pyridin-4-yl]-2-propylpyrazolo[1,5-a]pyridin-7-amine] | 0.9
5 | CSc1nccc(-c2c(CC(C)C)nn3ccccc23)n1 [Example 5, 2-Isobutyl-3-[2-(methylthio)pyrimidin-4-yl]pyrazolo[1,5-a]pyridine] | 21
6 | CC(C)Cc1nn2ccccc2c1-c1ccnc([S+](C)[O-])n1 (stereo not drawn) [Example 6, 2-Isobutyl-3-[2-(methylsulfinyl)pyrimidin-4-yl]pyrazolo[1,5-a]pyridine] | 24
7 | CC(C)Cc1nn2ccccc2c1-c1ccnc(NC2CCCC2)n1 [Example 7, N-Cyclopentyl-4-(2-isobutylpyrazolo[1,5-a]pyridin-3-yl)pyrimidin-2-amine] | 18
8 | CSc1cccc2c(-c3ccnc(NC4CCCC4)n3)c(CC(C)C)nn12 [Example 8, N-Cyclopentyl-4-[2-isobutyl-7-(methylthio)pyrazolo[1,5-a]pyridin-3-yl]pyrimidin-2-amine] | 3.8
9 | CC(C)Cc1nn2c([S+](C)[O-])cccc2c1-c1ccnc(NC2CCCC2)n1 (stereo not drawn) [Example 9, N-Cyclopentyl-4-[2-isobutyl-7-(methylsulfinyl)pyrazolo[1,5-a]pyridin-3-yl]pyrimidin-2-amine] | 1.9
10 | CC(C)Cc1nn2c(NC3CCCC3)cccc2c1-c1ccnc(NC2CCCC2)n1 [Example 10, N-Cyclopentyl-3-[2-(cyclopentylamino)pyrimidin-4-yl]-2-isobutylpyrazolo[1,5-a]pyridin-7-amine] | 0.5
11 | CSc1nccc(-c2c(C=O)nn3ccccc23)n1 [Example 12, 3-[2-(Methylthio)pyrimidin-4-yl]pyrazolo[1,5-a]pyridine-2-carbaldehyde] | > 5
12 | OC(c1ccccc1)c1nn2ccccc2c1-c1ccnc(NC2CCCC2)n1 (stereo not drawn) [Example 14, {3-[2-(Cyclopentylamino)-4-pyrimidinyl]pyrazolo[1,5-a]pyridin-2-yl}(phenyl)methanol] | 2.5
13 | O=C(c1ccccc1)c1nn2ccccc2c1-c1ccnc(NC2CCCC2)n1 [Example 15, {3-[2-(Cyclopentylamino)-4-pyrimidinyl]pyrazolo[1,5-a]pyridin-2-yl}(phenyl)methanone] | 7
14 | O=C(c1ccccc1)c1nn2c(NC3CCCC3)cccc2c1-c1ccnc(NC2CCCC2)n1 [Example 16, {7-(Cyclopentylamino)-3-[2-(cyclopentylamino)-4-pyrimidinyl]-pyrazolo[1,5-a]pyridin-2-yl}(phenyl)methanone] | 0.4
15 | c1ccc(Cc2nn3ccccc3c2-c2ccnc(NC3CCCC3)n2)cc1 [Example 17, 4-(2-Benzylpyrazolo[1,5-a]pyridin-3-yl)-N-cyclopentyl-2-pyrimidinamine] | 2
16 | c1ccc(Cc2nn3c(NC4CCCC4)cccc3c2-c2ccnc(NC3CCCC3)n2)cc1 [Example 19, N-{4-[2-Benzyl-7-(cyclopentylamino)pyrazolo[1,5-a]pyridin-3-yl]-2-pyrimidinyl}-N-cyclopentylamine] | 0.8
17 | COCc1nn2ccccc2c1-c1ccnc(NC2CCCC2)n1 [Example 20, N-Cyclopentyl-4-[2-(methoxymethyl)pyrazolo[1,5-a]pyridin-3-yl]-2-pyrimidinamine] | 15
18 | COCc1nn2c(SC)cccc2c1-c1ccnc(NC2CCCC2)n1 [Example 21, N-Cyclopentyl-4-[2-(methoxymethyl)-7-(methylsulfanyl)pyrazolo[1,5-a]pyridin-3-yl]-2-pyrimidinamine] | 4.6
19 | COCc1nn2c(NC3CCCC3)cccc2c1-c1ccnc(NC2CCCC2)n1 [Example 22, N-Cyclopentyl-3-[2-(cyclopentylamino)-4-pyrimidinyl]-2-(methoxymethyl)pyrazolo[1,5-a]pyridin-7-amine] | 1.2
20 | c1cc(NC2CCCC2)n2nc(CCCN3CCCC3)c(-c3ccnc(NC4CCCC4)n3)c2c1 [Example 23, N-Cyclopentyl-3-[2-(cyclopentylamino)-4-pyrimidinyl]-2-[3-(1-pyrrolidinyl)propyl]pyrazolo[1,5-a]pyridin-7-amine] | > 2.5
21 | CSc1nccc(-c2c(CNC(C)C)nn3ccccc23)n1 [Example 24, N-({3-[2-(Methylsulfanyl)-4-pyrimidinyl]pyrazolo[1,5-a]pyridin-2-yl}methyl)-2-propanamine] | 2.1
22 | CC(C)NCc1nn2ccccc2c1-c1ccnc(NC2CCCC2)n1 [Example 25, N-Cyclopentyl-4-{2-[(isopropylamino)methyl]pyrazolo[1,5-a]pyridin-3-yl}-2-pyrimidinamine] | 27
23 | CC(C)NCc1nn2c(NC3CCCC3)cccc2c1-c1ccnc(NC2CCCC2)n1 [Example 26, N-Cyclopentyl-3-[2-(cyclopentylamino)-4-pyrimidinyl]-2-[(isopropylamino)methyl]pyrazolo[1,5-a]pyridin-7-amine] | > 2.5
24 | CC(C)NCCCc1nn2c(Cl)cccc2c1-c1ccnc(NC2CCCC2)n1 [Example 27, 4-{7-Chloro-2-[3-(isopropylamino)propyl]pyrazolo[1,5-a]pyridin-3-yl}-N-cyclopentyl-2-pyrimidinamine] | 23
25 | CC(C)NCCCc1nn2c(NC3CCCC3)cccc2c1-c1ccnc(NC2CCCC2)n1 [Example 28, N-Cyclopentyl-3-[2-(cyclopentylamino)-4-pyrimidinyl]-2-[3-(isopropylamino)propyl]pyrazolo[1,5-a]pyridin-7-amine] | > 5
26 | COCCOCc1nn2c(Cl)cccc2c1-c1ccnc(NC2CCCC2)n1 [Example 29, 4-{7-Chloro-2-[(2-methoxyethoxy)methyl]pyrazolo[1,5-a]pyridin-3-yl}-N-cyclopentyl-2-pyrimidinamine] | 23
27 | COCCNc1cccc2c(-c3ccnc(NC4CCCC4)n3)c(COCCOC)nn12 [Example 30, 3-[2-(Cyclopentylamino)-4-pyrimidinyl]-2-[(2-methoxyethoxy)methyl]-N-(2-methoxyethyl)pyrazolo[1,5-a]pyridin-7-amine] | 4.7
28 | COCCOCc1nn2c(NC3CCCC3)cccc2c1-c1ccnc(NC2CCCC2)n1 [Example 31, N-Cyclopentyl-3-[2-(cyclopentylamino)-4-pyrimidinyl]-2-[(2-methoxyethoxy)methyl]pyrazolo[1,5-a]pyridin-7-amine] | 1.5
29 | CC(C)c1nn2ccccc2c1-c1ccnc(NC2CCCC2)n1 [Example 32, N-Cyclopentyl-4-(2-isopropylpyrazolo[1,5-a]pyridin-3-yl)pyrimidin-2-amine] | 4.4
30 | CC(C)c1nn2c(NC3CCCC3)cccc2c1-c1ccnc(NC2CCCC2)n1 [Example 33, N-Cyclopentyl-3-[2-(cyclopentylamino)pyrimidin-4-yl]-2-isopropylpyrazolo[1,5-a]pyridin-7-amine] | 2
